MIC and Activity data for four molecules are collected here from ChEMBL document CHEMBL1146263, “Antibiotic-conjugated polyacrylate nanoparticles: new opportunities for development of anti-MRSA agents” (Bioorg Med Chem Lett, 2007).

Structures are written as SMILES. In brackets after ≈: the same amount, converted by molar mass.

Data set [1] has as its system Staphylococcus aureus. Nature of the data set: Antibacterial activity against Staphylococcus aureus ATCC 25923 after 24 hrs by agar dilution method. Type of data set: functional. The conditions noted are these: ATCC 25923, 24 h.
Data set [2] is described as follows: Toxicity in human dermal fibroblasts. Format: cell-based. The conditions noted are these: fibroblast.
Data set [3] relates to Staphylococcus aureus. Put plainly: Antibacterial activity against methicillin-resistant Staphylococcus aureus ATCC 43300 after 24 hrs by agar dilution method. The conditions noted are these: ATCC 43300, 24 h. Type of data set: functional. (In general: In agar dilution the substance is mixed into plates at graded concentrations.)
The test system of data set [4] is Serum. Put plainly: Stability in human blood serum after 24 hrs. Type of data set: ADME, cell-free.
The nature of data set [5]: Chemical stability up to 60 degC after 24 hrs. Format: physicochemical.

With `C=CC(=O)OC1C(=O)N(SC)C1c1ccccc1Cl` (stereo not given), the MIC in data set [1] and in data set [3] was 128 µg/mL (≈ 430 µM) in each case. Further, the Activity result in data set [2] is recorded as “Non-toxic”; in data set [4], “Stable”; in data set [5], “Stable”.

Turning to `C=CC(=O)Oc1ccc(C2C(OC(=O)C=C)C(=O)N2SC)cc1` (stereo not given), the minimal inhibitory concentration (MIC) in data set [1] and in data set [3] was 128 µg/mL (≈ 384 µM) each time. Also, the values for the Activity entry in data set [2], in data set [4] and in data set [5] were “Non-toxic”, “Stable” and “Stable”, respectively.

For `C=CC(=O)OCCOC(=O)CCC(=O)OC1C(=O)N(SC)C1c1ccccc1Cl` (stereo not given), the MIC in data set [1] and in data set [3] was 64 µg/mL (≈ 145 µM) each time. Further, the Activity entry in data set [2] is “Non-toxic”; in data set [4] it was “Stable”; in data set [5] it was “Stable”.

`C=CC(=O)Oc1ccc(C2C(OC)C(=O)N2SC)cc1` (stereo not given): the MIC in data set [1] and in data set [3] was 128 µg/mL (≈ 436 µM) throughout. Besides, the results for the Activity result in data set [2], in data set [4] and in data set [5] were “Non-toxic”, “Stable” and “Stable”, respectively.
